Data published in patent US20260286306A1, “Culture Medium, Production Method, and Cell Preparation19155704” (National University Corporation Kumamoto University, priority 2023, published 2026).

What was measured:
[1] = system: EPCR High cell group (hematopoietic stem cells); assay: ex vivo culture of mouse EPCR High cell group for 4 days, flow cytometry and cell count; assay type: cell-based; conditions: for number of cells compared with the control: 4 days culture, FIG. 7(B); for proportion of EPCR High in hematopoietic stem cells (EPCR High phenotype): flow cytometry
From the text: The expression of c-kit and EPCR in a hematopoietic stem cell fraction (lineage: CD150+, CD48−) isolated from a mouse by using flow cytometry was checked. Among the c-kit-positive and EPCR-positive cells, a cell group of the top 30% of the EPCR-positive cells was defined as an EPCR High cell group, and a cell group of the bottom 30% of the EPCR-positive cells was defined as an EPCR Low cell group (see FIG. 1). Each cell group was transplanted into a recipient mouse, and 20 weeks later, the proportion of cells derived from the transplanted stem cells was examined in the peripheral blood (PB). In addition, at the same time, the proportion of cells derived from the transplanted stem cells was examined in the hematopoietic stem cell fraction (L-ESLAM) in the bone marrow after 20 weeks of the transplantation. The experiment was carried out twice.
As shown in FIG. 5(A), α-ketoglutaric acid (αKG), which is an intermediate metabolite of the TCA cycle, is also produced from glutamic acid or the like, and then it is supplied to the TCA cycle. In addition, in the production of a-ketoglutaric acid from glutamic acid, two pathways of a transaminase pathway and a glutamate dehydrogenase pathway are used (see FIG. 5(B)). Therefore, the proportion of EPCR High in hematopoietic stem cells was determined in a case where the EPCR High cell group was cultured for 4 days by adding each of an inhibitor R162 (30 μM) of glutamate dehydrogenase and an inhibitor aminooxyacetic acid (AOA) (50 μM) of transaminase to the culture medium, and in a case where the content of […], which is the source of glutamic acid synthesis, was set to 1/100 (0.02 mM) in FIG. 5(A) (Low Neu.).
The above-described mouse EPCR High cell group was cultured for 4 days by adding EGCG (50 μM), which is another glutamate dehydrogenase inhibitor, to a culture medium.

recipient mouse = assay: transplantation of cultured cell groups into a recipient mouse, proportion of donor-derived cells; assay type: in vivo
Description: Mouse EPCR High cells were cultured for 4 days under the normal culture conditions or in the presence of R162, and 50 cells of each of an EPCR High cell group (Control) generated under the normal culture conditions, an EPCR Low cell group (Control), and an EPCR High cell group (R162) amplified in the presence of R162 were aliquoted and then transplanted into a recipient mouse. Then, after 4 weeks and 12 weeks, the proportion of cells derived from donor cells in the peripheral blood was examined.
Further, the EPCR High cells were cultured for 4 days under the normal culture conditions and cultured for 4 days in the presence of R162, and the EPCR High cell group generated under the normal culture conditions, the EPCR Low cell group, and the EPCR High cell group (R162) amplified in the presence of R162 were each transplanted into a recipient mouse. Then, 20 weeks later, the proportion of cells derived from donor cells was examined in the peripheral blood and the hematopoietic stem cell fraction in the bone marrow (L-ESLAM (BM)).

[2] = system: Human CD34+ bone marrow cells; assay: culture of human CD34+ bone marrow cells for 7 days, total cell number and flow cytometry; assay type: cell-based; conditions: R162 30 μM
Description: Human CD34^+ bone marrow cells (10,000 cells) were cultured for 7 days under normal culture conditions or in the presence of a glutamate dehydrogenase inhibitor R162 (30 μM), and then the total number of cells was analyzed. Then, the proportion of hematopoietic stem cells (lineage: CD34+CD38−CD90+cells) was analyzed using a flow cytometer, and from the results, the number of stem cells was estimated. FIG. 13 and FIG. 14 show the results. As shown in FIG. 14(A), it has been confirmed that the total number of cells is not changed by the presence of R162 as compared with the control, whereas as shown in FIG. 14(B), the ratio of stem cells after culturing is increased by the presence of R162.
The culture medium used for the ex vivo culture of human CD34+ bone marrow cells is a culture medium obtained by adding, to the RPMI medium, L-Alanin (4.45 mg/L), Zinc Sulfate Heptahydrate (0.432 mg/L), Cupric Sulfate Pentahydrate (0.0013 mg/L), Ferric Nitrate Nonahydrate (0.05 mg/L), Ferrous Sulfate Heptahydrate (0.417 mg/L), Linoleic acid (0.042 mg/L), Hypoxanthine (2.1 mg/L), Putrescine+2HCL (0.081 mg/L), Thioctic Acid (0.105 mg/L), Thymidine (0.365 mg/L), Sodium Pyruvate (55 mg/L), HEPES (1 mM), a penicillin-streptomycin mixed solution (Nacalai Tesque, Inc.: 26253-84) (1/100 capacity), Insulin-Transferrin-Selenium-Ethanolamine (Thermo Fisher Scientific, Inc.: 51500056) (1/100 capacity), and AlbuMAXtm I Lipid-Rich BSA (Thermo Fisher Scientific, Inc.: 11020021) (2%).

Q: For `NOCC(=O)O` [AOA, aminooxyacetic acid], which “number of cells compared with the control” value ([1]; AOA 50 μM) is on record?
A: significantly reduced

Q: With `O=C(O[C@@H]1Cc2c(O)cc(O)cc2O[C@@H]1c1cc(O)c(O)c(O)c1)c1cc(O)c(O)c(O)c1` [EGCG, epigallo catechin-3-gallate] as the molecule, how does the “proportion of EPCR High in hematopoietic stem cells (EPCR High phenotype)” value ([1]; EGCG 50 μM in culture medium, 4 days, FIG. 15) read?
A: phenotype of EPCR High is maintained

Q: For `C=CCc1ccc2c(c1O)C(=O)c1ccccc1C2=O` [R162, 2-allyl-1-hydroxy-9,10-anthraquinone], which “proportion of cells derived from donor cells in the peripheral blood (ability to reconstruct hematopoietic tissue)” value (recipient mouse; 50 EPCR High cells amplified 4 days in the presence of R162, transplanted, 4 weeks and 12 weeks, FIG. 8) is on record?
A: high ability to reconstruct hematopoietic tissue, which is equivalent to the EPCR High cell group (Control)

Q: And the “proportion of cells derived from donor cells in peripheral blood and bone marrow hematopoietic stem cell fraction (L-ESLAM (BM))” value (recipient mouse; EPCR High cells amplified 4 days in the presence of R162, transplanted, 20 weeks, vs EPCR High and EPCR Low (Control), FIG. 12)?
A: high ability to maintain the reconstructed hematopoiesis for a longer period of time

Q: What about the fold induction at 30 µM ([1]; Mus musculus, Hematopoietic stem cell, 96 h, culture in the presence of R162 (30 μM), 4 days, read-out: increase in number of cells having the EPCR High phenotype compared with normal culture conditions) of the same molecule?
A: ~2

Q: And the “proportion of EPCR High in hematopoietic stem cells (EPCR High phenotype)” value ([1]; R162 30 μM in culture medium, 4 days, FIG. 6/7(A))?
A: phenotype of EPCR High is maintained

Q: And the “number of cells compared with the control” value ([1]; R162 30 μM)?
A: about the same level as that of the control

Q: And the “total number of cells compared with the control” value ([2]; 7 days, 10,000 cells seeded, FIG. 14(A))?
A: not changed

Q: What about the “ratio of stem cells (CD34+CD38−CD90+ cells) after culturing” value ([2]; 7 days, flow cytometer, FIG. 14(B)) of the same molecule?
A: increased

Q: What about the “number of stem cells compared with normal culture conditions” value ([2]; 7 days, estimated from total cell number and stem cell proportion) of the same molecule?
A: number of stem cells is increased
